Structures are written as SMILES.

This assay has as its target T1, HGFR (His6-HGFR cytoplasmic domain) (Homo sapiens, UniProt P08581).
T1 construct: made in house; host or cells: Spodoptera frugiperda Sf9 insect cells (baculovirus, pFastBac-HT)
The assay is described as follows: Inhibitory activity against HGFR tyrosine kinase activity (HTRF). The settings on record: biotin-poly(GT), ATP, 30° C. 10 min, read-out: IC50 (concentration necessary to inhibit HGFR kinase activity by 50%). The class given is biochemical. An excerpt: The cytoplasmic domain of HGFR (Genbank Accession No. J02958) is a 1.3 kb DNA fragment beginning with Lys974 and including a stop codon, and described by Park et al. (Proc. Natl. Acad. Sci. U.S.A. 84(18), 6379-6383, 1987). The DNA fragment was isolated from the human placental cDNA library (purchased from Clontech) by PCR (TaKaRa Ex Taq™ Kit, purchased from TaKaRa) using two kinds of primers (SEQ ID NO: 1, 5′-[…]-3′ and SEQ ID NO: 2, 5′-[…]-3′, purchased from Invitrogen). The DNA fragment was cloned into a baculovirus transplace vector (pFastBac™-HT (purchased from GIBCO BRL)) to produce a recombinant construct. The construct was transfected into insect cells (Spodoptera frugiperda 9 (Sf9)) to produce a solution of HGFR transfected baculovirus (preparation of a recombinant baculovirus can be found in the standard text (Bac-to-Bac Baculovirus Expression System (GIBCO BRL)). The cloning of the other receptor tyrosine kinases and preparation of the recombinant baculovirus solutions were performed using a cytoplasmic fragment starting from Lys791 (VEGFR2, Genbank Accession No. L04947), a cytoplasmic fragment starting from Lys398 (FGFR1, Genbank Accession No. X52833) and a cytoplasmic fragment starting from Lys558 (PDGFRβ, Genbank Accession No. M21616) in stead of HGFR in the above method. EGFR was purchased from Sigma (Production No. E-2645).
To the suspension of Sf9 cells (3×10^8 cells) in SF-900II medium (purchased from Invitrogen) containing 2% FBS was added a solution of HGFR transfected baculovirus above (4 ml), followed by a shaking culture at 27° C. for 48 hrs. The cells infected with the HGFR transfected baculovirus were centrifuged at 1,000 rpm, 4° C. for 5 min to remove the supernatant. The precipitated infected cells were suspended in 80 ml of ice-cold PBS, and centrifuged at 1,000 rpm, 4° C. for 5 min to remove the supernatant. The precipitated infected cells were suspended in 40 ml of ice-cold Lysis Buffer (50 mM Tris-HCl (pH 8.5), 5 mM 2-mercaptoethanol, 100 mM KCl, 1 mM PMSF and 1% (v/v) NP-40). The suspension was centrifuged at 12,000 rpm, 4° C. for 30 min to provide a supernatant.
The supernatant was loaded onto an Ni-NTA agarose column (3 ml, purchased from Qiagen) equilibrated with 30 ml of Buffer A (20 mM Tris-HCl (pH 8.5), 5 mM 2-mercaptoethanol, 500 mM KCl, 20 mM imidazole and 10% (v/v) glycerol). The column was washed with 30 ml of Buffer A, 6 ml of Buffer B (20 mM Tris-HCl (pH 8.5), 5 mM 2-mercaptoethanol, 1 M KCl, and 10% (v/v) glycerol) and 6 ml of Buffer A in this order. Then, the column was eluted with 6 ml of Buffer C (20 mM Tris-HCl (pH 8.5), 5 mM 2-mercaptoethanol, 100 mM KCl, 100 mM imidazole, and 10% (v/v) glycerol) to provide a fraction. The fraction was entrapped in a dialysis membrane (purchased from Spectrum Laboratories), dialyzed at 4° C. overnight with 1 L of dialysis buffer (20 mM Tris-HCl (pH 7.5), 10% (v/v) glycerol, 1 mM dithiothreitol, 0.1 mM Na3VO4 and 0.1 mM EGTA), and stored at −80° C. until used. An aliquot of the dialyzed fraction was subjected to SDS electrophoresis, and then a recombinant protein (His6-HGFR, the HGFR cytoplasmic domain fused with six histidine at the N terminus) detected at a molecular weight of about 60 kDa when stained with Coomassie Brilliant Blue, was determined with regard to protein content using BSA (purchased from Sigma) as a standard. The VEGFR2 cytoplasmic domain, the FGFR1 cytoplasmic domain, and the PDGFRβ cytoplasmic domain were fused with six histidine at the N terminus by the similar method to produce respective recombinant proteins (His6-VEGFR2, His6-FGFR1, and His6-PDGFRβ). […]
On the technique in general: TR-FRET usually uses a lanthanide donor and a delayed reading to cut background.

T1 sequence (P08581 956-1390 limits assumed): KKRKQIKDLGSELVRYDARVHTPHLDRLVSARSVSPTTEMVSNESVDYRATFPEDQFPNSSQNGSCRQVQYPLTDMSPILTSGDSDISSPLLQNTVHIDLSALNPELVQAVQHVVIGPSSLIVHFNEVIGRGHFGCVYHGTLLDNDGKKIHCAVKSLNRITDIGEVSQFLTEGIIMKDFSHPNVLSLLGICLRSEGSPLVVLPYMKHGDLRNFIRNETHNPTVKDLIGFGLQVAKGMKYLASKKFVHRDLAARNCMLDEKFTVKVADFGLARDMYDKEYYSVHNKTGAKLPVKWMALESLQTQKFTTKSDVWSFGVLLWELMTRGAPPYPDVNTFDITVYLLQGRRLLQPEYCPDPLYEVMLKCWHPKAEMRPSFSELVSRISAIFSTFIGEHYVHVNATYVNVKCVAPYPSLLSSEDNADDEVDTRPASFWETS

As for `CN(C)CCN1CCN(C(=O)Nc2cc(Oc3ccc(NC(=O)NC(=O)Cc4ccccc4)cc3F)ccn2)CC1` [Example 364, 2-{[4-(2-Dimethylaminoethyl)piperazin-1-yl]carbonylamino}-4-{2-fluoro-4-[3-(2-phenylacetyl)ureido]phenoxy}pyridine], the IC50 was 97 nM.

Turning to `O=C(Cc1ccc(F)cc1)NC(=S)Nc1ccc(Oc2cc(NC(=O)N3CCN(CCN4CCCC4)CC3)ncn2)c(F)c1` [Example 339, 4-(2-Pyrrolidin-1-ylethyl)piperazine-1-carboxylic acid [6-(2-fluoro-4-{3-[2-(4-fluorophenyl)acetyl]thioureido}phenoxy)pyrimidin-4-yl]amide], the IC50 was found to be 130 nM.

`CN(C)CCN1CCC(N(C)C(=O)Nc2cc(Oc3ccc(NC(=S)NC(=O)Cc4ccc(F)cc4)cc3F)ccn2)CC1` [Example 224, 1-[1-(2-Dimethylaminoethyl)piperidin-4-yl]-3-[4-(2-fluoro-4-{3-[2-(4-fluorophenyl)acetyl]thioureido}phenoxy)pyridin-2-yl]-1-methylurea]: the IC50 came out at 88 nM.

Take `CN(C)C(=O)Nc1cc(Oc2ccc(NC(=O)CC(=O)Nc3ccc(F)cc3)c(F)c2)ccn1` [Example 84, N-{4-[2-(3,3-Dimethylureido)pyridin-4-yloxy]-2-fluorophenyl}-N′-(4-fluorophenyl)malonamide]: the IC50 stood at 12 nM.

For `CN(C)C(=O)Nc1cc(Oc2ccc(NC(=O)NC(=O)Cc3ccc(F)cc3)cc2F)ncn1` [Example 51, 3-[6-(2-Fluoro-4-{3-[2-(4-fluorophenyl)acetyl]ureido}phenoxy)pyrimidin-4-yl]-1,1-dimethylurea], the IC50 is 18 nM.

`CN1CC(N2CCN(C(=O)Nc3cc(Oc4ccc(NC(=S)NC(=O)Cc5ccc(F)cc5)cc4F)ncn3)CC2)C1` [Example 196]: the IC50 was 57 nM.

As to `CN(C)CCN1CCC(N(C)C(=O)Nc2cc(Oc3ccc(NC(=S)NC(=O)Cc4ccc(F)cc4)c(F)c3)ccn2)CC1` [Example 183], the IC50 was 160 nM.

As to `CCN(CC)CCCN(C)C(=O)Nc1cc(Oc2ccc(NC(=O)NC(=O)Cc3ccccc3)cc2F)ccn1` [Example 49, 1-(3-Diethylaminopropyl)-3-{4-[2-fluoro-4-(3-phenylacetylureido)phenoxy]pyridin-2-yl}-1-methylurea], the IC50 came to 210 nM.

Take `O=C(Cc1ccc(F)cc1)NC(=S)Nc1ccc(Oc2cc(NC(=O)N3CCOCC3)ncn2)c(F)c1` [Example 4, Morpholine-4-carboxylic acid [6-[2-fluoro-4-{3-[2-(4-fluorophenyl)acetyl]thioureido}phenoxy)pyrimidin-4-yl]amide]: the IC50 came out at 30 nM.

Turning to `CN(C)CC1CCN(C(=O)Nc2cc(Oc3ccc(NC(=S)NC(=O)Cc4ccc(F)cc4)cc3)ccn2)CC1` [Example 188, 2-{[4-(Dimethylaminomethyl)piperidin-1-yl]carbonylamino}-4-(4-{3-[2-(4-fluorophenyl)acetyl]thioureido}phenoxy)pyridine], the IC50 came out at 130 nM.

As to `CN(C(=O)Nc1cc(Oc2ccc(NC(=S)NC(=O)Cc3ccc(F)cc3)cc2F)ncn1)C1CCOCC1` [Example 288, 3-[6-(2-Fluoro-4-{3-[2-(4-fluorophenyl)acetyl]thioureido}phenoxy)pyrimidin-4-yl]-1-methyl-1-(tetrahydropyran-4-yl)urea], the IC50 is 16 nM.

As for `CN(C)CC1CCN(C(=O)Nc2cc(Oc3ccc(NC(=O)NC(=O)Cc4ccccc4)cc3F)ccn2)CC1` [Example 342, 2-{[4-(Dimethylaminomethyl)piperidin-1-yl]carbonylamino}-4-{2-fluoro-4-[3-(2-phenylacetyl)ureido]phenoxy}pyridine], the IC50 came out at 59 nM.

Regarding `CN1CC[C@H](N(C)C(=O)Nc2cc(Oc3ccc(NC(=S)NC(=O)Cc4ccc(F)cc4)cc3F)ncn2)C1` [Example 201, 3-[6-(2-Fluoro-4-{3-[2-(4-fluorophenyl)acetyl]thioureido}phenoxy)pyrimidin-4-yl]-1-methyl-1-[(3S)-1-methylpyrrolidin-3-yl]urea], the IC50 is 50 nM.

For `CN1CCN(C2CCN(C(=O)Nc3cc(Oc4ccc(NC(=S)NC(=O)Cc5ccc(F)cc5)cc4)ccn3)CC2)CC1` [Example 191, 4-(4-{3-[2-(4-Fluorophenyl)acetyl]thioureido}phenoxy)-2-{[4-(1-methylpiperazin-4-yl)piperidin-1-yl]carbonylamino}pyridine], the IC50 is 57 nM.

As to `CN(C)CCCN1CCC(N(C)C(=O)Nc2cc(Oc3ccc(NC(=S)NC(=O)Cc4ccc(F)cc4)cc3F)ccn2)CC1` [Example 225, 1-[1-(3-Dimethylaminopropyl)piperidin-4-yl]-3-[4-(2-fluoro-4-{3-[2-(4-fluorophenyl)acetyl]thioureido}phenoxy)pyridin-2-yl]-1-methylurea], the IC50 was found to be 79 nM.

In the case of `CN1CC(N2CCN(C(=O)Nc3cc(Oc4ccc(NC(=O)NC(=O)Cc5ccccc5)cc4F)ccn3)CC2)C1` [Example 377, 4-(1-Methylazetidin-3-yl)piperazine-1-carboxylic acid {4-[2-fluoro-4-(3-phenylacetylureido)phenoxy]pyridin-2-yl}amide], the IC50 was found to be 68 nM.

As for `CN(C)C1CN(C2CCN(C(=O)Nc3cc(Oc4ccc(NC(=S)NC(=O)Cc5ccc(F)cc5)cc4)ccn3)CC2)C1` [Example 195, 4-[3-(Dimethylamino)azetidin-1-yl]piperidine-1-carboxylic acid [4-(4-{3-[2-(4-fluorophenyl)acetyl]thioureido}phenoxy)pyridin-2-yl]amide], the IC50 was found to be 57 nM.

For the compound `CN1CCN(C2CCN(C(=O)Nc3cc(Oc4ccc(NC(=S)NC(=O)Cc5ccccc5)cc4F)ccn3)CC2)CC1` [Example 182, 4-{2-Fluoro-4-[3-(2-phenylacetyl)thioureido]phenoxy}-2-{[4-(1-methylpiperazin-4-yl)piperidin-1-yl]carbonylamino}pyridine], the IC50 worked out at 70 nM.

In the case of `CN(C)CC1CCN(C(=O)Nc2cc(Oc3ccc(NC(=O)NC(=O)Cc4ccc(F)cc4)cc3F)ccn2)CC1` [Example 347, 2-{[4-(Dimethylaminomethyl)piperidin-1-yl]carbonylamino}-4-(2-fluoro-4-{3-[2-(4-fluorophenyl)acetyl]ureido}phenoxy)pyridine], the IC50 worked out at 62 nM.

Take `O=C(Cc1ccc(F)cc1)NC(=S)Nc1ccc(Oc2cc(NC(=O)N3CCC(N4CCC4)CC3)ncn2)c(F)c1` [Example 172, 4-(Azetidin-1-yl)piperidine-1-carboxylic acid [6-(2-fluoro-4-{3-[2-(4-fluorophenyl)acetyl]thioureido}phenoxy)pyrimidin-4-yl]amide]: the IC50 was found to be 64 nM.

In the case of `O=C(Cc1ccc(F)cc1)NC(=S)Nc1ccc(Oc2cc(NC(=O)N3CCC(CN4CCCC4)CC3)ncn2)c(F)c1` [Example 349, 4-(Pyrrolidin-1-ylmethyl)piperidine-1-carboxylic acid [6-(2-fluoro-4-{3-[2-(4-fluorophenyl)acetyl]thioureido}phenoxy)pyrimidin-4-yl]amide], the IC50 came out at 87 nM.

On to `CN(C)C[C@@H]1CCN(C(=O)Nc2cc(Oc3ccc(NC(=S)NC(=O)Cc4ccc(F)cc4)cc3F)ncn2)C1` [Example 179, 4-{[(3S)-3-(Dimethylaminomethyl)pyrrolidin-1-yl]carbonylamino}-6-(2-fluoro-4-{3-[2-(4-fluorophenyl)acetyl]thioureido}phenoxy)pyrimidine], for which the IC50 was determined as 25 nM.

(Values after US20070270421A1, “Novel pyridine Derivative and Pyrimidine Derivative (1)” (priority 2004, published 2007).)
